Like-named read-outs stand apart in the source and are kept apart here.

Experiment [1] concerns Staphylococcus Aureus (S. aureus, ATCC 6538). The experiment in a line: Anti-microbial performance of finished textiles, shock method (GB/T 20944.3-2007). It counts as cell-based. The method, then: (§1) (1) A comparison of the anti-microbial effects of textiles soaked with compound E obtained in Example 2 and unsoaked textiles was shown in FIG. 1. The experimental procedure was: The anti-microbial performance of the finishing text was tested by the shock method (GB/T 20944.3-2007). The tested microorganism were Gram-negative Escherichia coli (E. coli, ATCC 25922) and Gram-positive Staphylococcus Aureus (S. Aureus, ATCC 6538). The specific experimental operations are as follows: 1) inoculating and culturing the microorganisms at 37° C. for 14 h; diluting the microbial solution to 10^−5 using a sterilized PBS buffer (pH=7.2) to obtain a diluted microbial solution; 2) taking the same size of blank textiles (e.g., cloth) and textiles (finished using compound E and sterilized) in different 50 mL tubes, adding 5 mL of diluted microbial solution to immerse the textiles, sealing the tubes and putting the tubes on a shaker for shaking the tubes under 37° C. at 190 r/min for 24 h; 3) after 24 hours of cultivation, the tubes were taken out and diluted to 10 times using a PBS solution. 100 μL of the diluted microbial solution was added to the nutrient agar medium, uniformly spread to dryness, placed in an incubator, and cultured at 37° C. for 16 h, and then the plates were taken out, and the number of colonies in each plate was counted. The anti-microbial rate was calculated by the following equation: Anti-microbial rate (%)=[…]. Notes: N1 denotes the number of colonies in the finished cloth; N0 denotes the number of colonies in blank cloth.
(§2) The inhibitory effect of compound E obtained in Example 19 on Escherichia coli and Staphylococcus Aureus at various concentrations was shown in FIGS. 3 to 5. The experimental procedure was: using the enzyme linked immunosorbent assay to determine the minimal inhibitory concentration (MIC) value of the anti-microbial drug, and adding the diluted anti-microbial drug solution to the sterilized 100-well plate, respectively. Specifically, 10 ul of drug solution (i.e., a solution of compound E) was added to the first to eleventh holes at concentrations of 100 μg/ml, 90 μg/ml, 80 μg/ml, 70 μg/ml, 60 μg/ml, 50 μg/ml, 40 μg/ml, 30 μg/ml, 20 μg/ml, 10 μg/ml, 5 μg/ml. The drug solution was not added to the twelfth hole which serves as a control group; the bacterial suspension was diluted by LB broth (0.5 Mcfarland Standard dilution to 1000 times with a bacterial concentration of 105 colony-forming unit (CFU)/ml), and 90 μl of the bacterial suspension was added to each well. […] The change curve of OD600 value for 24 h was measured in a microplate reader (automatic growth-curve machine). […]

In experiment [2] the test system is Escherichia coli (E. coli, ATCC 25922). The experiment is described as above. Type of experiment: cell-based. On the procedure:
as §1, §2

Experiment [3] relates to Candida Albicans (C. albicans 10231). The experiment in a line: Anti-microbial rate of finished cotton textiles, FZ/T73023-2006 D.8 shocking method. It counts as cell-based. The note with it: Candida albicans, finishing liquid 1.0 wt %, read-out: Anti-microbial rate (%) of cotton textiles finished with compound E (1.0 wt %), C. albicans. An excerpt:
(§3) Each of the reaction products (i.e., compound E) according to Examples 1-21 was used to prepare an anti-microbial agent (e.g., a finishing liquid), and the anti-microbial effects were different depending on compound E and conditions of use.
(§4) Remarks: 1) in the data of anti-microbial rate in Table 5: Examples 1-9 used a soaking-rolling-drying process to finish cotton fabric, where the bath ratio (i.e., the ratio of the weight of a liquid containing compound E to the weight of the cotton fabric) was 20:1, the residual liquid ratio was 90%, and the drying process was conducted at 85° C. for 30 minutes; Examples 10-18 were prepared by a soaking-high speed spinning-drying method, where the bath ratio was 20:1, the residual liquid ratio was 90%, and the drying process was conducted at 85° C. for 20 min; Examples 19-21 were prepared by a spraying-spinning-drying process with a bath ratio of 30:1, a residual liquid ratio of 85% after drying, and the drying process was conducted at 105° C. for 5 minutes.
(§5) 2) Table 5 data test method: FZ/T73023-2006 anti-microbial textiles D.8 shocking method. In addition, the inhibition zone method (FZ/T73023-2006 anti-microbial textiles—Appendix E—inhibition zone method) was used to test whether the active compound (E) was released from the finished cotton textiles, the inhibition zone test result of the 21 examples and zwitterions were 0 mm, and thus compound E was not released from the finished cotton textiles. The anti-microbial finishing agent used in the comparative experiment was zwitterion with the molecular structure
(§6) 3) The composition of the finishing liquid in Table 5 was: compound E 1.0 wt %, sodium bicarbonate 1.0 wt %, and the rest of the finishing liquid was water.

For experiment [4], the system named is Staphylococcus Aureus (S. aureus, ATCC 6538). The description is as above. It counts as cell-based. The note with it: Staphylococcus aureus, ATCC6538, finishing liquid 1.0 wt %, read-out: Anti-microbial rate (%) of cotton textiles finished with compound E (1.0 wt %), S. aureus.
Excerpt: as §3, §4, §5, §6

For experiment [5], the system named is Escherichia Coli (E. coli, ATCC25922). Described as above. The note with it: Escherichia coli, ATCC25922, finishing liquid 1.0 wt %, read-out: Anti-microbial rate (%) of cotton textiles finished with compound E (1.0 wt %), E. coli. It counts as cell-based.
Excerpt: as §3, §4, §5, §6

A further experiment concerns house dust mites. The experiment in a line: Anti-mite activity of finished textiles (GB/T 24253-2009). Type of experiment: in vivo. The method, then:
(§7) (2) A comparison of the anti-microbial effects of textiles soaked with compound E obtained in Example 11 and unsoaked textiles was shown in FIG. 2. The experimental procedure was as follows: the anti-microbial performance of the finished textiles was tested by the live cell counting method, and the anti-mite activity of the house dust mites was evaluated according to the national standard method (GB/T 24253-2009).

Experiment [6] relates to Gram-positive bacteria (Staphylococcus aureus). The experiment in a line: Anti-microbial performance of finished textiles, live cell counting method. It counts as cell-based. The note with it: textiles soaked with compound E (1.0 wt %). On the procedure:
as §7

Experiment [7] has as its system Gram-negative bacteria (E. coli). The description is as above. Type of experiment: cell-based. The note with it: textiles soaked with compound E (1.0 wt %). On the procedure: as §7
Experiment [8] deals with fungi (Aspergillus niger). The description is as above. Type of experiment: cell-based. The note with it: textiles soaked with compound E (1.0 wt %). The method, then: as §7
For another experiment, the system named is Staphylococcus Aureus. The experiment in a line: Minimal inhibitory concentration (MIC), OD600 growth curve in microplate reader. The note with it: LB broth, OD600 for 24 h, read-out: minimum inhibitory concentration against Staphylococcus Aureus. Type of experiment: cell-based. The method, then:
(§8) The inhibitory effect of compound E obtained in Example 19 on Escherichia coli and Staphylococcus Aureus at various concentrations was shown in FIGS. 3 to 5. The experimental procedure was: using the enzyme linked immunosorbent assay to determine the minimal inhibitory concentration (MIC) value of the anti-microbial drug, and adding the diluted anti-microbial drug solution to the sterilized 100-well plate, respectively. Specifically, 10 ul of drug solution (i.e., a solution of compound E) was added to the first to eleventh holes at concentrations of 100 μg/ml, 90 μg/ml, 80 μg/ml, 70 μg/ml, 60 μg/ml, 50 μg/ml, 40 μg/ml, 30 μg/ml, 20 μg/ml, 10 μg/ml, 5 μg/ml. The drug solution was not added to the twelfth hole which serves as a control group; the bacterial suspension was diluted by LB broth (0.5 Mcfarland Standard dilution to 1000 times with a bacterial concentration of 105 colony-forming unit (CFU)/ml), and 90 μl of the bacterial suspension was added to each well. At this time, the drug concentrations of the first to the eleventh holes were 10 μg/ml, 9 μg/ml, 8 μg/ml, 7 μg/ml, and 6 μg/ml, 5 μg/ml, 4 μg/ml, 3 μg/ml, 2 μg/ml, 1 μg/ml, 0.5 μg/ml respectively. The change curve of OD600 value for 24 h was measured in a microplate reader (automatic growth-curve machine). […]

The next experiment concerns Escherichia coli. The description is as above. Type of experiment: cell-based. The note with it: LB broth, OD600 for 24 h, read-out: minimum inhibitory concentration against Escherichia coli. On the procedure: as §8
Setting [9] is: both finishing liquids 1.0 wt %.
Setting [10] is: finished cloth, concentration of compound E >0.1%.

Take `CCCCCCCC[N+](C)(C)CCOc1nc(Cl)nc(Cl)n1` [Example 1]: the “anti-microbial activity of finishing liquid compared with zwitterionic finishing liquid, S. aureus” value in experiment [1] (setting [9]) is listed as “greater than that of the zwitterionic finishing liquid”. Besides, in experiment [2] (setting [9]), the “anti-microbial activity of finishing liquid compared with zwitterionic finishing liquid, E. coli” value is “greater than that of the zwitterionic finishing liquid”. Moreover, the killing at 1 % turned out to be 99.9% in experiment [3] (times of washing 0); 99.9% in experiment [3] (times of washing 10); 98.9% in [3] (times of washing 50); 100% in experiment [4] (times of washing 0); 99.9% in experiment [4] (times of washing 10); 99.8% in [4] (times of washing 50). In addition, the killing at 1 % worked out at 100% in experiment [5] (times of washing 0), 99.9% in [5] (times of washing 10) and 99.2% in experiment [5] (times of washing 50).
For `CCCCCCCCCCCCCCCCCC[n+]1ccn(CCOc2nc(Cl)nc(Cl)n2)c1` [Example 11], in the experiment with house dust mites, the “acaricidal activity against house dust mites” value is recorded as “good acaricidal activity”. In addition, the “bacteriostatic rate, Staphylococcus aureus” value in experiment [6] is listed as “over 99.99%”. Besides, in experiment [7], the “bacteriostatic rate, E. coli” value is on record as “over 99.99%”. Further, the “bacteriostatic rate, Aspergillus niger” value in [8] was “over 99.99%”. In addition, the killing at 1 % in experiment [3] (times of washing 0) worked out at 99.9%; in experiment [3] (times of washing 10), 99.9%; in experiment [3] (times of washing 50), 99.6%; in experiment [4] (times of washing 0), 100%; in experiment [4] (times of washing 10), 99.9%; in [4] (times of washing 50) it was 99.9%. The killing at 1 % in experiment [5] (times of washing 0) came out at 100%; in experiment [5] (times of washing 10), 99.9%; in experiment [5] (times of washing 50) it was 99.9%.
With `Br.CCCCCCCCCC[N+](C)(C)CN(CCOc1nc(Cl)nc(Cl)n1)C[N+](C)(C)CCCCCCCCCC` [Example 19], the “anti-microbial rate of the anti-microbial finishing liquid, S. aureus” value in [1] (setting [10]) is above 99.9%. Also, the “anti-microbial rate of the anti-microbial finishing liquid, E. coli” value in [2] (setting [10]) is on record as above 99.9%. The MIC with Staphylococcus Aureus was determined as 1 µg/mL; in the experiment with Escherichia coli it was 4 µg/mL. Further, the killing at 1 % in [3] (times of washing 0) was 99.9%; in experiment [3] (times of washing 10), 99.9%; in experiment [3] (times of washing 50) it was 97.9%; in experiment [4] (times of washing 0) it was 100%; in experiment [4] (times of washing 10), 99.9%; in [4] (times of washing 50) it was 99.8%. Further, the figures for the killing at 1 % in [5] (times of washing 0), in [5] (times of washing 10) and in experiment [5] (times of washing 50) were 100%, 99.9% and 99.7%, respectively.

For the origin of these results see patent publication US12290073B2, “Anti-microbial compound and methods of use” (SHENZHEN UNIVERSITY, priority 2019, dated 2025).
